Experimental data reported in patent US20260207623A1, “USE OF ESTETROL IN HEPATICALLY IMPAIRED PATIENTS” (ESTETRA SRL, priority 2022, published 2026).
Like-named read-outs stand apart in the source and are kept apart here.

Assay: Phase 1 pharmacokinetic study of a single oral dose of 20 mg E4 monohydrate in female subjects with normal hepatic function and mild, moderate or severe hepatic impairment (plasma, LC-MS/MS, non-compartmental analysis)
Type: in vivo, human
Settings: for AUC0-24 h, GM / CL/F, GM / CL/F, Mean / CL/F, Median / Cmax, Mean / λz, GM / λz, Mean / λz, Median / Tmax / AUC(0-inf) / Cmax / AUC(0-t) / half-life / Vd/F: plasma; for Tmax / AUC(0-inf) / Cmax / AUC(0-t) / half-life / Vd/F: female, human, 20 mg
Procedure: This was a Phase 1, multi-centre, open-label, PK, and safety study of a single oral dose of 20 mg E4 monohydrate in female subjects with normal hepatic function (Group 1), mild hepatic impairment (Group 2), moderate hepatic impairment (Group 3), and severe hepatic impairment (Group 4), as defined using the Child-Pugh classification at Screening.
The study consisted of an eligibility Screening period (within 28 days prior to study drug administration), an Assessment Period with in-house period and outpatient visits (including a single oral dose of 20 mg E4 on Day 1), and a follow up visit. All subjects were confined to the study site from Day-1 (the day before dosing) until Day 4 and returned to the site every day from Day 5 to Day 9. Alternatively, the subjects could stay for a prolonged in-house period in agreement with the Investigator. The follow-up visit occurred on Day 14 (+2 days).
All subjects arrived at the study site in the morning of Day-1 in a fasted state (no food for at least 8 h, water was allowed) to have the scheduled assessments performed in order to confirm eligibility as outlined in the inclusion and exclusion criteria (Section 2.3.1 and Section 2.3.2, respectively). In the morning of Day 1 following an overnight fast, the subjects received oral dosing of 20 mg E4 monohydrate and remained at the site. Study-related assessments were performed at time points indicated in the Schedule of Assessments in Table 2.
Serial blood sampling for PK assessments started on Day 1 and proceeded until Day 9 according to the Pharmacokinetic Sampling Schedule presented in Table 3.
Each enrolled subject was to receive a single oral dose of 20 mg of E4 (estetrol) as monohydrate as a film-coated tablet.
Study drug was administered to subjects in the morning after an overnight fast of at least 8 h.
Calculation of non-compartmental PK parameters were done using WinNonlin™ Professional, Version 6.3 or higher.
The primary PK parameters to be analyzed for E4 in plasma: • Cmax=maximum observed plasma concentration • AUCinf=area under the concentration-time curve (AUC) from time zero extrapolated to infinity
The analysis of E4 and the metabolites E4-3-glucuronide and E4-16-glucuronide in plasma samples were performed at the Bioanalytical Laboratory of the CRO using a validated liquid chromatography-mass spectrometry/mass spectrometry method.
Individual and mean plasma concentrations at each sampling time point for E4 are presented by listings and descriptive summary statistics including means, geometric means (GMs), medians, ranges, standard deviations (SD) and coefficients of variation (CV). Individual, mean and/or median concentrations per hepatic function group were plotted versus time on semilogarithmic scales.
PK parameters were calculated by non-compartmental analysis. PK parameters were analysed using descriptive statistics and are presented by hepatic function group.
Analysis of variance (ANOVA) were used to compare primary PK parameters of E4 (Cmax and AUCinf) between subjects with hepatic impairment and subjects with normal hepatic function in an exploratory approach, using the log-transformed value of each PK parameter as dependent variable, and the hepatic impairment group (normal, mild, moderate, and severe) as a fixed classification factor. Geometric least squares means were used to calculate the ratios of primary PK parameters for each hepatic impairment group to those in the control group, along with 90% confidence intervals (CIs).
Additionally, the impact of age and BMI on the effect of hepatic impairment were evaluated using an ANOVA model similar as the ANOVA model described above, but with the interaction between each factor and the hepatic impairment group included as an additional factor.
The relationship between log-transformed PK parameters (Cmax and AUCinf) and continuous parameters (albumin, total bilirubin, and prothrombin time) used for the Child-Pugh score was explored by a linear regression approach. […]

[1] = Mild hepatic impairment, single oral dose 20 mg E4 monohydrate
[2] = Moderate hepatic impairment, single oral dose 20 mg E4 monohydrate
[3] = Moderate vs. Normal, one-way ANOVA
[4] = Normal hepatic function, single oral dose 20 mg E4 monohydrate
[5] = Severe hepatic impairment, single oral dose 20 mg E4 monohydrate
[6] = Severe vs. Normal, one-way ANOVA

For `C[C@]12CC[C@@H]3c4ccc(O)cc4CC[C@H]3[C@@H]1[C@@H](O)[C@@H](O)[C@@H]2O` [E4, 1,3,5 (10)-estratrien-3,15alpha, 16alpha, 17beta-tetrol], the “AUC0-24 h, GM” value [1] was 69.76 ng·h/mL, the “CL/F, GM” value [1] was 171.23 L/h and the “CL/F, Mean” value [1] was 177.13 L/h. The “CL/F, Median” value [1] was 188.75 L/h, the “Cmax, Mean” value [1] was 38.363 ng/mL and the “λz, GM” value [1] was 0.0300 h⁻¹. The “λz, Mean” value [1] was 0.0373 h⁻¹, the “λz, Median” value [1] was 0.0428 h⁻¹ and the “AUCinf, Geometric Mean Ratio (Test/Reference) Estimate” value (Mild vs. Normal, one-way ANOVA) was 1.120. For the same compound, the “Cmax, Geometric Mean Ratio (Test/Reference) Estimate” value (Mild vs. Normal, one-way ANOVA) was 1.661, the “AUC0-24 h, GM” value [2] was 88.75 ng·h/mL and the “CL/F, GM” value [2] was 185.80 L/h. The “CL/F, Mean” value [2] was 214.77 L/h, the “CL/F, Median” value [2] was 175.13 L/h and the “Cmax, Mean” value [2] was 52.410 ng/mL. For the same compound, the “λz, GM” value [2] was 0.0500 h⁻¹, the “λz, Mean” value [2] was 0.0520 h⁻¹ and the “λz, Median” value [2] was 0.0493 h⁻¹. The “AUCinf, Geometric Mean Ratio (Test/Reference) Estimate” value [3] was 1.032, the “Cmax, Geometric Mean Ratio (Test/Reference) Estimate” value [3] was 1.896 and the “AUC0-24 h, GM” value [4] was 60.41 ng·h/mL. The “CL/F, GM” value [4] was 191.77 L/h, the “CL/F, Mean” value [4] was 200.09 L/h and the “CL/F, Median” value [4] was 177.60 L/h. For the same compound, the “Cmax, Mean” value [4] was 23.878 ng/mL, the “λz, GM” value [4] was 0.0300 h⁻¹ and the “λz, Mean” value [4] was 0.0329 h⁻¹. For the same compound, the “λz, Median” value [4] was 0.0307 h⁻¹, the “AUC0-24 h, GM” value [5] was 179.05 ng·h/mL and the “CL/F, GM” value [5] was 101.25 L/h. The “CL/F, Mean” value [5] was 104.83 L/h, the “CL/F, Median” value [5] was 111.40 L/h and the “Cmax, Mean” value [5] was 117.025 ng/mL. The “λz, GM” value [5] was 0.0800 h⁻¹, the “λz, Mean” value [5] was 0.0905 h⁻¹ and the “λz, Median” value [5] was 0.1108 h⁻¹. The “AUCinf, Geometric Mean Ratio (Test/Reference) Estimate” value [6] was 1.894, the “Cmax, Geometric Mean Ratio (Test/Reference) Estimate” value [6] was 5.359 and the “plasma levels at 24 h after administration” value (comparison among hepatic function groups) was “in the same range among the different hepatic function groups”. It also gave a Tmax (oral, across all hepatic function groups, read-out: Tmax, range) of 0.23 to 1.92 h, a Tmax (oral, all hepatic function groups, read-out: Median Tmax, range over the hepatic function groups) of 0.25 to 0.5 h and an AUC(0-inf) (po, Mild (Test), one-way ANOVA, single oral dose 20 mg, read-out: AUCinf, Geometric LS Mean) of 117 ng·h/mL. For the same compound, the Cmax (po, Mild (Test), one-way ANOVA, single oral dose 20 mg, read-out: Cmax, Geometric LS Mean) was 34.5 ng/mL, the AUC(0-t) (po, Mild hepatic impairment, single oral dose 20 mg E4 monohydrate, read-out: AUC0-24 h, GM) was 69.8 ng·h/mL and the AUC(0-t) (po, Mild hepatic impairment, single oral dose 20 mg E4 monohydrate, read-out: AUC0-24 h, Mean) was 72.9 ng·h/mL. The AUC(0-t) (po, Mild hepatic impairment, single oral dose 20 mg E4 monohydrate, read-out: AUC0-24 h, Median) was 66.3 ng·h/mL, the AUC(0-inf) (po, Mild hepatic impairment, single oral dose 20 mg E4 monohydrate, read-out: AUCinf, GM) was 117 ng·h/mL and the AUC(0-inf) (po, Mild hepatic impairment, single oral dose 20 mg E4 monohydrate, read-out: AUCinf, Mean) was 122 ng·h/mL. The AUC(0-inf) (po, Mild hepatic impairment, single oral dose 20 mg E4 monohydrate, read-out: AUCinf, Median) was 106 ng·h/mL, the AUC(0-t) (po, Mild hepatic impairment, single oral dose 20 mg E4 monohydrate, read-out: AUClast, GM) was 116 ng·h/mL and the AUC(0-t) (po, Mild hepatic impairment, single oral dose 20 mg E4 monohydrate, read-out: AUClast, Mean) was 121 ng·h/mL. The AUC(0-t) (po, Mild hepatic impairment, single oral dose 20 mg E4 monohydrate, read-out: AUClast, Median) was 105 ng·h/mL, the Cmax (po, Mild hepatic impairment, single oral dose 20 mg E4 monohydrate, read-out: Cmax, GM) was 34.5 ng/mL and the Cmax (po, Mild hepatic impairment, single oral dose 20 mg E4 monohydrate, read-out: Cmax, Mean) was about 38 ng/mL. It also gave a Cmax (po, Mild hepatic impairment, single oral dose 20 mg E4 monohydrate, read-out: Cmax, Median) of 34.9 ng/mL, a half-life (po, Mild hepatic impairment, single oral dose 20 mg E4 monohydrate, read-out: T1/2, GM (converted)) of 20.1 h and a half-life (po, Mild hepatic impairment, single oral dose 20 mg E4 monohydrate, read-out: T1/2, Mean (converted)) of 22.1 h. For the same compound, the half-life (po, Mild hepatic impairment, single oral dose 20 mg E4 monohydrate, read-out: T1/2, Median (converted)) was 16.2 h, the Tmax (po, Mild hepatic impairment, single oral dose 20 mg E4 monohydrate, read-out: Tmax, Median) was 0.375 h and the Vd/F (po, Mild hepatic impairment, single oral dose 20 mg E4 monohydrate, read-out: Vz/F, GM) was 4960 L. It also gave a Vd/F (po, Mild hepatic impairment, single oral dose 20 mg E4 monohydrate, read-out: Vz/F, Mean) of 5830 L, a Vd/F (po, Mild hepatic impairment, single oral dose 20 mg E4 monohydrate, read-out: Vz/F, Median) of 4800 L and an AUC(0-inf) (po, Moderate (Test), one-way ANOVA, single oral dose 20 mg, read-out: AUCinf, Geometric LS Mean) of 108 ng·h/mL. For the same compound, the Cmax (po, Moderate (Test), one-way ANOVA, single oral dose 20 mg, read-out: Cmax, Geometric LS Mean) was 39.4 ng/mL, the AUC(0-t) (po, Moderate hepatic impairment, single oral dose 20 mg E4 monohydrate, read-out: AUC0-24 h, GM) was 88.8 ng·h/mL and the AUC(0-t) (po, Moderate hepatic impairment, single oral dose 20 mg E4 monohydrate, read-out: AUC0-24 h, Mean) was 103 ng·h/mL. The AUC(0-t) (po, Moderate hepatic impairment, single oral dose 20 mg E4 monohydrate, read-out: AUC0-24 h, Median) was 92.6 ng·h/mL, the AUC(0-inf) (po, Moderate hepatic impairment, single oral dose 20 mg E4 monohydrate, read-out: AUCinf, GM) was 108 ng·h/mL and the AUC(0-inf) (po, Moderate hepatic impairment, single oral dose 20 mg E4 monohydrate, read-out: AUCinf, Mean) was 123 ng·h/mL. The AUC(0-inf) (po, Moderate hepatic impairment, single oral dose 20 mg E4 monohydrate, read-out: AUCinf, Median) was 115 ng·h/mL and the AUC(0-t) (po, Moderate hepatic impairment, single oral dose 20 mg E4 monohydrate, read-out: AUClast, GM) was 107 ng·h/mL.
